Source: patent US9725442B2, “Heterocyclic derivative having PGD2 receptor antagonist activity” (Shionogi & Co., Ltd., priority 2011, dated 2017)
Where two headings read alike, the source gives them in different places.

Assays:
[1] = molecular target: Human DP1 receptor (Homo sapiens (Human), UniProt Q13258); assay: Human DP1 inhibitory activity in DP1-expressing cell (PGD2-induced cAMP); format: cell-based
Description: Compounds were categorized as AA (cAMP is less than 100 nM) and A (cAMP is more than 100 nM and less than 5000 nM) as shown in Table 99 and 100.

[2] = molecular target: CRTH2 (Homo sapiens (Human), UniProt Q9Y5Y4); assay: CRTH2 receptor binding inhibitory activity ([3H]-PGD2 displacement, membranes of CRTH2-expressing K562 cell)
Description: Cell membrane was prepared from CRTH2-expressing K562 cell. The cell membrane (20 μg/well) was mixed with reaction buffer (50 mM Tris/HCl, pH 7.4, 10 mM MgCl2). Then, [^3H]-PGD2 was added to the mixture and incubated for 60 min at room temperature. […] Then, the mixture was filtrated with glass paper immediately. The filter paper was washed several times and radio activity on the filter was measured. Specific binding was defined as difference between total and non-specific binding (radio activity with 10 μM PGD2). Ki values for each compound were calculated from displacement curve.

[3] = category of cAMP IC50, human DP1 receptor expressing Jurkut cell
[4] = CRTH2 receptor binding, [3H]-PGD2 displacement, membrane of CRTH2-expressing K562 cell, categorized AAAA/AAA, read-out: Ki
[5] = [3H]-PGD2 displacement, membrane of CRTH2-expressing K562 cell, read-out: Ki
[6] = IC50 of PGD2 (60 nM)-induced cAMP increase, human DP1 receptor expressing Jurkut cell

Chain of Human DP1 receptor (Q13258 whole entry): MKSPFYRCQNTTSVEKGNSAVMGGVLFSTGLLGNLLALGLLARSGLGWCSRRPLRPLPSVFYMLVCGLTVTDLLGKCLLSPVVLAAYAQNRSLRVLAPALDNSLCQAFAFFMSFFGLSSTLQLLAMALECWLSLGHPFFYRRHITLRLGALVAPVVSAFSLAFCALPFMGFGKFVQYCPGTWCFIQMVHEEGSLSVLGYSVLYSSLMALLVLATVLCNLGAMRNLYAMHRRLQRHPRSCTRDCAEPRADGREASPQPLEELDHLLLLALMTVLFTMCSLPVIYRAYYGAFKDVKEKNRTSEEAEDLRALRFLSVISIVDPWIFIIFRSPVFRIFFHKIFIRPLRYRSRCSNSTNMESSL
Chain of CRTH2 (Q9Y5Y4 whole entry): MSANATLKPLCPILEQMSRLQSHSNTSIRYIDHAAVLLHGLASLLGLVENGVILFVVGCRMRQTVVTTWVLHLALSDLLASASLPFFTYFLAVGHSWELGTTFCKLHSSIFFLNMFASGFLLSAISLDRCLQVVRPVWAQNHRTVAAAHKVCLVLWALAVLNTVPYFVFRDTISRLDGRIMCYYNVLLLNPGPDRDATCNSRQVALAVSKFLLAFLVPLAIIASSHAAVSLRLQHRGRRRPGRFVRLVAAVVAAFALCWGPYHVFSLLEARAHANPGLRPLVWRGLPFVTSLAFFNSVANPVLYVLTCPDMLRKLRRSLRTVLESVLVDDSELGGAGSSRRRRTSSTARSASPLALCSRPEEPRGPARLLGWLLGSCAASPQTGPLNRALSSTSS

Structure (SMILES) | IC50 [1, 3] [nM] | Ki [2, 4] [nM] | Ki [2, 5] [nM] | IC50 [1, 6] [nM] | Ki [2] [nM]
CO[C@@H]1CN(S(=O)(=O)c2ccc(OC(C)C)cc2)C[C@@H]1n1nc(CC(=O)O)c2ccc(F)cc21 [Compound I-30] | 100 to 5000 | 100 to 5000 | 140 |  | 
CCOc1ccc(S(=O)(=O)N2C[C@@H](C)[C@@H](n3nc(C(O)C(=O)O)c4ccccc43)C2)cc1 (single isomer, unassigned) [Compound I-306] | 100 to 5000 | 100 to 5000 |  |  | 
CC(C)Oc1ccc(S(=O)(=O)N2C[C@@H](C)[C@@H](n3nc(CC(=O)O)c4ccccc43)C2)nc1 [Compound I-248] | 100 to 5000 | < 100 |  |  | 
CC(C)Oc1ccc(S(=O)(=O)N2C[C@H](n3nc(CC(=O)O)c4ccc(F)cc43)C[C@@H]2COc2ccc(O)cc2)cc1 [Compound I-347] | < 100 | 100 to 5000 |  |  | 
CC(C)Oc1ccc(S(=O)(=O)N2C[C@H](n3nc(CC(=O)O)c4ccc(Cl)cc43)C[C@@H]2C(F)F)cc1 [Compound I-93] | < 100 | 100 to 5000 |  |  | 
CC(C)Oc1ccc(S(=O)(=O)N2C[C@@H](CO)[C@@H](n3nc(CC(=O)O)c4ccc(F)cc43)C2)cc1 [Compound I-64] | 100 to 5000 | < 100 |  |  | 
CSC[C@H]1C[C@@H](n2nc(CC(=O)O)c3ccc(F)cc32)CN1S(=O)(=O)c1ccc(OC(C)C)cc1 [Compound I-354] | < 100 | 100 to 5000 |  |  | 
CC(C)Oc1ccc(S(=O)(=O)N2C[C@H](n3nc(CC(=O)O)c4ccc(F)cc43)CC2(C)C)cc1 [Compound I-24] | 100 to 5000 | < 100 |  |  | 
Cc1ccc2c(CC(=O)O)nn([C@@H]3C[C@H](C)N(S(=O)(=O)c4ccc(OC(C)C)cc4)C3)c2c1 [Compound I-94] | < 100 | < 100 |  |  | 
CC(C)Oc1ccc(S(=O)(=O)N2C[C@H](n3nc(CC(=O)O)c4ccc(F)cc43)C[C@@H]2COCCCOc2ccccc2)cc1 [Compound I-289] | 100 to 5000 | 100 to 5000 |  |  | 
CC(C)Oc1ccc(S(=O)(=O)N2C[C@H](n3nc(CC(=O)O)c4ccc(F)cc43)C[C@@H]2COc2nc3ccccc3s2)cc1 [Compound I-334] | < 100 | 100 to 5000 |  |  | 
C[C@@H]1CN(S(=O)(=O)c2ccc(F)cc2)C[C@@H]1n1nc(CC(=O)O)c2ccc(F)cc21 [Compound I-48] | 100 to 5000 | < 100 |  |  | 
CCOc1ccc(S(=O)(=O)N2C[C@H](n3nc(CC(=O)O)c4ccccc43)C[C@H]2C#N)cc1 [Compound I-320] | < 100 | < 100 |  |  | 
CC(C)Oc1ccc(S(=O)(=O)N2C[C@@H](C)[C@@H](n3nc(/C=C/C(=O)O)c4ccc(F)cc43)C2)cc1 [Compound I-100] | 100 to 5000 | < 100 |  |  | 
CC(C)Oc1ccc(S(=O)(=O)N2C[C@H](n3nc(CC(=O)O)c4ccc(F)cc43)C[C@H]2c2ccncc2)cc1 [Compound I-362] | 100 to 5000 | 100 to 5000 |  |  | 
CC(C)Oc1ccc(S(=O)(=O)N2C[C@@H](C)[C@@H](n3nc(CC(=O)O)c4c(F)cccc43)C2)cc1 [Compound I-263] | < 100 | < 100 |  |  | 
C[C@@H]1CN(S(=O)(=O)c2ccc(OC(F)(F)F)cc2)C[C@@H]1n1nc(CC(=O)O)c2ccccc21 [Compound I-242] | < 100 | < 100 |  |  | 
CC(C)Oc1ccc(S(=O)(=O)N2CC(F)[C@@H](n3nc(CC(=O)O)c4ccc(F)cc43)C2)cc1 (some centres unmarked) [Compound I-26] | 100 to 5000 | < 100 |  |  | 
CCOc1ccc(S(=O)(=O)N2C[C@@H](C)[C@@H](n3nc(C(C)(OC)C(=O)O)c4ccccc43)C2)cc1 (some centres unmarked) [Compound I-285] | 100 to 5000 | 100 to 5000 |  |  | 
CCOc1ccc(S(=O)(=O)N2C[C@H](C)[C@@H](n3nc(CC(=O)O)c4ccccc43)C2)cn1 [Compound I-201] | 100 to 5000 | < 100 |  |  | 
CC(C)Oc1ccc(S(=O)(=O)N2C[C@H](n3nc(CC(=O)O)c4cc(Cl)ccc43)C[C@H]2C)cc1 [Compound I-15] | 100 to 5000 | < 100 | 56 |  | 
CCOc1ccc(S(=O)(=O)N2C[C@@H](C)[C@@H](n3nc(CC(=O)O)c4ccccc43)C2)c(CCCNC(C)=O)c1 [Compound I-260] | 100 to 5000 | < 100 | 21 |  | 
CCOc1ccc(S(=O)(=O)N2C[C@@H](C)[C@@H](n3nc(CC(=O)O)c4ccc(OC)cc43)C2)cc1 [Compound I-225] | < 100 | < 100 |  |  | 
CC(C)Oc1ccc(S(=O)(=O)N2C[C@H](n3nc(CC(=O)O)c4ccc(F)cc43)C[C@@H]2c2ccccn2)cc1 [Compound I-358] | 100 to 5000 | 100 to 5000 |  |  | 
CC(C)Oc1ccc(S(=O)(=O)N2C[C@H](n3nc(CC(=O)O)c4cccc(F)c43)C[C@@H]2C(F)F)cc1 [Compound I-133] | 100 to 5000 | 100 to 5000 |  |  | 

Structure (SMILES) | IC50 [1, 3] [nM] | Ki [2, 4] [nM] | Ki [2, 5] [nM] | IC50 [1, 6] [nM] | Ki [2] [nM]
CC(C)Oc1ccc(S(=O)(=O)N2C[C@H](n3nc(CC(=O)O)c4ccc(F)cc43)C[C@@H]2c2ccncc2)cc1 [Compound I-361] | 100 to 5000 | 100 to 5000 |  |  | 
C[C@@H]1CN(S(=O)(=O)c2cc3ccccc3s2)C[C@@H]1n1nc(CC(=O)O)c2ccccc21 [Compound I-152] | 100 to 5000 | < 100 | 56 |  | 
Cc1ccc(S(=O)(=O)N2C[C@@H](C)[C@@H](n3c(C)c(CC(=O)O)c4ccccc43)C2)cc1 [Compound I-288] | 100 to 5000 | < 100 | 40 | 100 | 
CC(C)Oc1ccc(S(=O)(=O)N2C[C@H](n3nc(CC(=O)O)c4ccc(F)cc43)C[C@@H]2COc2ccccc2)cc1 [Compound I-365] | < 100 | 100 to 5000 |  |  | 
COC[C@H]1C[C@@H](n2nc(CC(=O)O)c3ccc(F)cc32)CN1S(=O)(=O)c1ccc(OC(C)C)cc1 [Compound I-17] | < 100 | < 100 |  |  | 
COc1ccc(S(=O)(=O)N2C[C@@H](C)[C@@H](n3nc(CC(=O)O)c4ccc(F)cc43)C2)cc1 [Compound I-112] | < 100 | < 100 |  |  | 
COc1ccc(S(=O)(=O)N2C[C@H](n3nc(CC(=O)O)c4ccccc43)[C@@](C)(F)C2)cn1 (racemic) [Compound I-208] | 100 to 5000 | < 100 |  |  | 
CC(C)Oc1ccc(S(=O)(=O)N2C[C@H](n3nc(CC(=O)O)c4ccc(F)cc43)C[C@@H]2Cn2ncnn2)cc1 [Compound I-299] | 100 to 5000 | 100 to 5000 |  |  | 
C[C@H]1CN(S(=O)(=O)c2ccc(OC(F)F)cc2)C[C@H]1n1nc(CC(=O)O)c2ccc(F)cc21 [Compound I-136] | 100 to 5000 | 100 to 5000 |  |  | 
COc1ccc(S(=O)(=O)N2C[C@@H](C)[C@@H](n3nc(CC(=O)O)c4ccccc43)C2)c(F)c1 [Compound I-244] | < 100 | < 100 |  |  | 
COCCOc1ccc(S(=O)(=O)N2C[C@@H](C)[C@@H](n3nc(CC(=O)O)c4ccccc43)C2)cc1 [Compound I-189] | 100 to 5000 | < 100 |  |  | 
CCOc1ccc(S(=O)(=O)N2C[C@@H](C)[C@@H](n3nc(CC(=O)O)c4cc5c(cc43)OCO5)C2)cn1 [Compound I-176] | 100 to 5000 | < 100 |  |  | 
CCOc1ccc(S(=O)(=O)N2C[C@H](n3nc(CC(=O)O)c4ccccc43)[C@H](C)[C@@H]2C#N)cc1 [Compound I-333] | < 100 | < 100 |  |  | 
CCOc1ccc(S(=O)(=O)N2C[C@H](n3nc(CC(=O)O)c4ccc(F)cc43)[C@H](C)[C@H]2C#N)cc1 [Compound I-217] | < 100 | < 100 |  |  | 
C=Cc1cc(OCC)ccc1S(=O)(=O)N1C[C@@H](C)[C@@H](n2nc(CC(=O)O)c3ccccc32)C1 [Compound I-276] | < 100 | < 100 |  |  | 
CC(C)Oc1ccc(S(=O)(=O)N2[C@@H]3CC[C@H]2C[C@@H](n2nc(CC(=O)O)c4ccc(F)cc42)C3)cc1 [Compound I-83] | < 100 |  |  |  | 100 to 5000
CC(C)Oc1ccc(S(=O)(=O)N2C[C@@H](C)[C@@H](n3nc(CC(=O)O)c4cccnc43)C2)cc1 [Compound I-145] | 100 to 5000 | < 100 | 3.1 |  | 
COc1ccc(S(=O)(=O)N2C[C@@H](C)[C@@H](n3nc(CC(=O)O)c4cc(Cl)ccc43)C2)cc1 [Compound I-218] | < 100 | 100 to 5000 |  |  | 
CCOc1ccc(S(=O)(=O)N2C[C@H](n3nc(CC(=O)O)c4ccccc43)[C@@H](C)[C@@H]2C(N)=O)cc1 [Compound I-298] | 100 to 5000 | 100 to 5000 |  |  | 
Cc1c(CC(=O)O)c2ccccc2n1[C@@H]1C[C@H](C)N(S(=O)(=O)c2ccc(F)cc2)C1 [Compound I-317] | 100 to 5000 | 100 to 5000 |  |  | 
Cc1cccc2c1c(CC(=O)O)nn2[C@H]1CN(S(=O)(=O)c2ccc(OC(C)C)cc2)C[C@H]1C [Compound I-250] | < 100 | 100 to 5000 |  |  | 
CCOc1ccc(S(=O)(=O)N2C[C@@H](C)[C@@H](n3nc(CC(=O)O)c4ccc(C5=CCCCC5)cc43)C2)cc1 [Compound I-220] | < 100 | < 100 | 8.1 | 32 | 
C[C@H]1CN(S(=O)(=O)c2ccc(OC(F)F)cc2)C[C@@H]1n1nc(CC(=O)O)c2ccccc21 [Compound I-194] | 100 to 5000 | < 100 |  |  | 
CC(C)Oc1ccc(S(=O)(=O)N2C[C@@H](C)[C@@H](n3nc(Cc4nnn[nH]4)c4ccc(F)cc43)C2)cc1 [Compound I-157] | 100 to 5000 | 100 to 5000 | 270 |  | 
CCOc1ccc(S(=O)(=O)N2C[C@@H](C)[C@@H](n3nc(CC(=O)O)c4ccc(F)cc43)C2)c(F)c1 [Compound I-147] | < 100 | < 100 |  |  | 
